Patent US9260473B2, “Bivalent multifunctional ligands targeting Aβ oligomers as treatment for Alzheimer's disease” (Virginia Commonwealth University, priority 2010, dated 2016)

Assays:
Aβ42 = molecular target: T1, Aβ42 (Homo sapiens, UniProt P05067); test: Aβ42 oligomerization inhibition assay (Western blot); assay type: biochemical; settings: Aβ42 5 μM, compound 20 μM, 4 hrs at 37° C.
T1 construct: Aβ42 was obtained from American Peptide, Inc. (Sunnyvale, Calif.); purchased American Peptide, Inc. (Sunnyvale, Calif.)
T1 sequence (P05067 672-713 limits assumed): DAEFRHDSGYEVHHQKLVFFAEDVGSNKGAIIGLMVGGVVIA
Protocol: In order to confirm 14 can bind to AβOs, the inhibition of Aβ42 oligomerization was performed and assessed using Western blot analysis as described in literature^29 in order to investigate binding interactions of 14 with Aβ42 and the CM/LR of MC65 cells. Briefly, Aβ42 (5 μM) was incubated with or without compounds (20 μM), then samples were analyzed by Western blot using 6E10 antibody.
Aβ42 oligomerization inhibition assay. An aliquot of Aβ42 (0.045 mg) was dissolved in 20 μL of DMSO and diluted in Ham's F-12 media without phenol red (Caisson's Laboratory, Inc., Utah). […] After incubation, the samples (50 μL) were spun down at 14,000×g for 10 min. The supernatant (20 μL) was mixed with an equal part of Tricine sample buffer without reducing agents (Bio-Rad). The unaggregated Aβ42 control was not incubated at 37° C., and mixed with sample buffer (no centrifuging) and stored at −80° C. before it was electrophoresed. Samples (25 μL) were electrophoresed on a 10-20% Tris-Tricine gel, transferred to PVDF membrane, and blocked with 10% nonfat milk in PBS for 30 min. […] The proteins were visualized by Western Blot Chemiluminescence Reagent (NEN Life Science Products, Boston, Mass.).

MC65 cells = test: Cytotoxicity assay in MC65 cells (MTS, +TC/−TC); assay type: cell-based, human; settings: 72 hrs
Description: Protective effects of 14 on AβOs-induced cytotoxicity in MC65 cells and differentiated human neuroblastoma SH-SY5Y cells. […] To further verify whether 14 can protect cells from extracellular AβOs-induced cytotoxicity, all trans-retinoic acid differentiated human SH-SY5Y cells were employed. […] This may further indicate that while both 1 and 14 can bind to AβOs, CM/LR anchorage of 14 can increase its accessibility to intracellular target AβOs. Since CM/LR are crucial for many aspects of cell signaling and functions, 14 was further evaluated for its potential cytotoxicity in mouse spleen and natural killer (NK) cells.
Cytotoxicity assay in MC65 cells. MC65 cells were seeded in 96-well plates (4×10^4 cells/well) at 37° C., 5% CO2 for 24 hrs. The medium was removed and washed with PBS twice. Opti-MEM and test compounds were added under +TC and −TC conditions. The plates were incubated at 37° C., 5% CO2 for 72 hrs, then 20 uL CellTiter 96 AQueous One Solution (Promega, Madison, Wis.) were added to each well and the plates were incubated at 37° C., 5% CO2 for 2-4 hrs. The plates were read at 490 nm using FlexStation III plate reader (Molecular Devices). The blank with only test compounds in Opti-MEM was set up as background control for all of the tested concentrations. Each data point was averaged from six replicates and the experiments were independently repeated at least three times.

SH-SY5Y cells = test: Cytotoxicity assay in differentiated SH-SY5Y cells treated with AβOs; assay type: cell-based, human; settings: AβOs 1 μM, 48 hrs, all of the tested concentrations
Protocol: Cytotoxicity assay in differentiated SH-SY5Y cells. SH-SY5Y cells were plated at 10,000 cells/well in type 1 collagen coated 96-well plates (Invitrogen) and were differentiated in Opti-MEM supplemented with 2% B-27 (Invitrogen) and 10 μM all-trans-retinoic acid for 7 days. The medium was removed and replaced with fresh maintenance medium. Freshly prepared Aβ42 oligomers in Ham's F-12 medium (1 μM) was added to cells for 48 hrs at 37° C. with or without test compounds. After treatment, 20 uL CellTiter 96 AQueous One Solution (Promega, Madison, Wis.) were added to each well and the plates were incubated at 37° C., 5% CO2 for 2-4 hrs. The plates were read at 490 nm in FlexStation III plate reader (Molecular Devices). Each data point was averaged from six replicates and the experiments were independently repeated at least three times.

splenocytes = test: Anti-CD3 antibody mediated splenocyte proliferation; assay type: cell-based, B6C3F1 mice; settings: 10 μM
Protocol: Anti-CD3 antibody mediated splenocyte proliferation. […] The splenocytes (2×10^5/well) were cultured in the microtiter wells coated with anti-CD3 Ab (1 μg/mL; BD PharMingen) in the presence of 1 or 14 (10 μM) at 37° C. in 5% CO2. Prior to harvest on day 3, the cells were pulsed with ^3H-thymidine for 18-24 hours. The incorporation of ^3H-thymidine into the proliferating cells was used as the endpoint of the assay, and the data were expressed as CPM/2×10^5 cells.

NK cells = test: IL-2 augmented natural killer (NK) cell activity; assay type: cell-based, B6C3F1 mice; settings: 10 μM
Protocol: IL-2 augmented natural killer (NK) cell activity. […] Recombinant IL-2 (Chiron, Emeryville, Calif.) at a volume of 50 μL was added to each well so that the final concentration of IL-2 was 5000 fU/mL. The plates were cultured overnight in the presence of 1 or 14 (10 μM), and then assayed for NK cell activity using ^51Cr-labeled YAC-1 cells as the target cells. The ^51Cr-YAC-1 cells were added to each well of a 96-well plate to obtain E:T ratio of 50:1. […] Following 4 hrs incubation, the plates were centrifuged, and 0.1 mL of the supernatant was removed from each well and the radioactivity counted. The mean percentage of cytotoxicity was determined.

Aβ42 oligomers = molecular target: T2, Aβ42 oligomers (Homo sapiens, UniProt P05067); test: Fluorescence polarization binding to Aβ42 oligomers; settings: compound 1 μM, 3 hrs, read-out: apparent binding constant (Kd) for Aβ42 oligomers
T2 construct: The monomers, oligomers and fibrils of Aβ42 were prepared according to established protocols and confirmed by TEM
T2 sequence (P05067 672-713 limits assumed): as above
Protocol: (§1) FIG. 8A-C. BMAOI 14 binds to Aβ42 monomers, oligomers, and fibrils, but not BSA. A. The monomers, oligomers and fibrils of Aβ42 were prepared according to established protocols and confirmed by TEM; B. Compound 14 (1 μM) was incubated with different forms of Aβ42 at indicated concentrations for 3 hrs. Then, fluorescence polarization change of 14 was recorded and the binding affinity was calculated; C. Compound 14 was incubated with BSA as described in B and the binding affinity was calculated.
(§2) To determine the binding affinity of 14 to Aβ, we evaluated changes in fluorescence polarization values of this probe at different 14:Aβ ratios for monomeric, oligomeric, and fibrillary Aβ species, respectively. Aβ42 is chosen to evaluate the binding of probe as it is the major and most sticky amyloid peptide found in AD plaques.^1 The formation of different Aβ42 species was confirmed by transmission electron microscope (TEM) as shown in FIG. 8A. […] It appears that 14 binds to Aβ42 with micromolar affinity and slightly favors […] fibrils over monomers and oligomers.

Aβ42 fibrils [1] = molecular target: T3, Aβ42 fibrils (Homo sapiens, UniProt P05067); test: Fluorescence polarization binding to Aβ42 fibrils; settings: compound 1 μM, 3 hrs, read-out: apparent binding constant (Kd) for Aβ42 fibrils
T3 construct: The monomers, oligomers and fibrils of Aβ42 were prepared according to established protocols and confirmed by TEM
T3 sequence (P05067 672-713 limits assumed): as above
Protocol: as §1, §2

[2] = molecular target: bovine serum albumin (BSA) (Bos taurus, UniProt P02769); test: Fluorescence polarization binding to BSA; settings: read-out: binding affinity to BSA (Kd)
Chain of bovine serum albumin (BSA) (P02769 25-607): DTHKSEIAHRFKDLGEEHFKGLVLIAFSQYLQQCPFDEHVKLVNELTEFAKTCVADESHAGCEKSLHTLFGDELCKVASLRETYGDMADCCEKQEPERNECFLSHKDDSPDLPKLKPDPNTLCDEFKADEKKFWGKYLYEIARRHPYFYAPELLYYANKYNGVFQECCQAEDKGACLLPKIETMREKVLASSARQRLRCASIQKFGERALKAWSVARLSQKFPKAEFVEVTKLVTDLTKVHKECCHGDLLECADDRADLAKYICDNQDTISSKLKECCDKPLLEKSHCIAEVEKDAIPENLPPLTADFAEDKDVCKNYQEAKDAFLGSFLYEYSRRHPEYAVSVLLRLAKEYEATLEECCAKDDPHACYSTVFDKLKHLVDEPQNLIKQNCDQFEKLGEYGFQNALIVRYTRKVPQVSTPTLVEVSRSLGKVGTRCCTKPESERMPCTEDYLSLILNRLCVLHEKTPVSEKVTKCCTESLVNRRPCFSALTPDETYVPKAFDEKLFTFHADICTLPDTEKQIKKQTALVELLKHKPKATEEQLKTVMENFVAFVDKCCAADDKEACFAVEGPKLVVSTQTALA
Protocol: as §1, §2

Aβ42 fibrils [3] = molecular target: T3, Aβ42 fibrils; test: Fluorescence emission before and after mixing with Aβ42 fibrils; assay type: binding; settings: compound 1 μM
Protocol: FIG. 9. Fluorescence emission of 14 (1 μM) before and after mixing with Aβ42 fibrils.
To examine the change of fluorescence properties upon binding to Aβ42, we compared the fluorescence properties of free 14 in aqueous solution to its fluorescence properties in the presence of Aβ42 fibrils as this chemical probe will be used to detect Aβ plaques. […] A blue shift in the emission spectra of 10 nm was also observed upon association with Aβ42 fibrils.

[4] = BBB permeability in B6C3F1 mice, brain tissue analysed by HPLC; assay type: in vivo
Protocol: FIG. 10. Compound 14 can cross the blood brain barrier (BBB) of B6C3F1 mice. Compound 14 (10 mg/kg) was given to B6C3F1 female mice (n=3) by i.v. administration through tail-vein. Then the animals were sacrificed at indicated time intervals and the brain tissues were collected and analyzed by HPLC using C18 column.
An appropriate fluorescent probe must cross the BBB and selectively bind to Aβ plaques. […] Here, we further assessed the BBB permeability of 14 using female B6C3F1 mice combined with HPLC analysis. […] The results may indicate that 14 can rapidly cross the BBB and reach the brain tissue and is metabolized in a reasonable time window (˜3 hrs) that allows clinical operation. 14 appears to violate all of the empirical rules of BBB permeability with a molecule weight >1000 Da and being more lipophilic (log P>3). However, we also realize that there are exceptions and that compounds with molecular weight more than 1000 Da can efficiently cross the BBB and reach brain tissue.

COc1cc(C=CC(=O)C(Cc2cn(CCCCCCNC(=O)CCNC(=O)CCNC(=O)COC3CCC4(C)C(=CCC5C4CCC4(C)C(C(C)CCCC(C)C)CCC54)C3)nn2)C(=O)C=Cc2ccc(O)c(OC)c2)ccc1O (stereo not drawn) [BMAOI 14]
inhibition of oligomerization of Aβ42 (Aβ42): inhibited the oligomerization of Aβ42
toxic effects on MC65 cell viability in the presence of TC (MC65 cells; +TC, tested concentrations, MTS): no toxic effects
rescue of MC65 cell viability upon removal of TC (MC65 cells; −TC, 16 μM): nearly full rescue
protective effects on MC65 cell viability upon removal of TC (MC65 cells; −TC, MTS): protected MC65 cell survival in a dose-dependent manner
protection of SH-SY5Y cell viability from AβOs (SH-SY5Y cells): completely restored the cell viability
cytotoxic effects in mouse spleen cells (splenocytes): minimal cytotoxic effects
cytotoxic effects in NK cells (NK cells): no cytotoxic effects
Kd (Aβ42 oligomers): 2170 nM
Kd (Aβ42 fibrils [1]): 830 nM
Kd [2]: ~120000 nM
increase of emission intensity upon binding to Aβ42 fibrils (Aβ42 fibrils [3]; Aβ42=5 μM, excitation 430 nm): 4.5 fold
blue shift in the emission spectra upon association with Aβ42 fibrils (Aβ42 fibrils [3]): 10 nm
time window until disappearance from brain tissue ([4]; 10 mg/kg i.v.): ~3 h
earliest time detected in brain tissue ([4]; 10 mg/kg i.v. tail-vein, female B6C3F1 mice): 10 min
duration of presence in brain tissue ([4]; 10 mg/kg i.v., evident at 60 and 120 minutes): more than two hours
